Measurements as given in patent US6623933B1 (priority 1999, dated 2003).
Where a name gives a salt, the structure may show the parent alone. Read-outs that look alike come from different tables or passages of the source.

What was measured:
Type in all cases: cell-based
GluR1 AMPA receptor = molecular target: T1, GluR1 AMPA receptor (Rattus norvegicus, UniProt P19490); experiment: Kainate-induced currents, Xenopus oocytes injected with GluR1 cRNA
T1 construct: expressed in transfected cells; host or cells: Xenopus oocytes injected with GluR1 cRNA
T1 sequence (P19490 19-907): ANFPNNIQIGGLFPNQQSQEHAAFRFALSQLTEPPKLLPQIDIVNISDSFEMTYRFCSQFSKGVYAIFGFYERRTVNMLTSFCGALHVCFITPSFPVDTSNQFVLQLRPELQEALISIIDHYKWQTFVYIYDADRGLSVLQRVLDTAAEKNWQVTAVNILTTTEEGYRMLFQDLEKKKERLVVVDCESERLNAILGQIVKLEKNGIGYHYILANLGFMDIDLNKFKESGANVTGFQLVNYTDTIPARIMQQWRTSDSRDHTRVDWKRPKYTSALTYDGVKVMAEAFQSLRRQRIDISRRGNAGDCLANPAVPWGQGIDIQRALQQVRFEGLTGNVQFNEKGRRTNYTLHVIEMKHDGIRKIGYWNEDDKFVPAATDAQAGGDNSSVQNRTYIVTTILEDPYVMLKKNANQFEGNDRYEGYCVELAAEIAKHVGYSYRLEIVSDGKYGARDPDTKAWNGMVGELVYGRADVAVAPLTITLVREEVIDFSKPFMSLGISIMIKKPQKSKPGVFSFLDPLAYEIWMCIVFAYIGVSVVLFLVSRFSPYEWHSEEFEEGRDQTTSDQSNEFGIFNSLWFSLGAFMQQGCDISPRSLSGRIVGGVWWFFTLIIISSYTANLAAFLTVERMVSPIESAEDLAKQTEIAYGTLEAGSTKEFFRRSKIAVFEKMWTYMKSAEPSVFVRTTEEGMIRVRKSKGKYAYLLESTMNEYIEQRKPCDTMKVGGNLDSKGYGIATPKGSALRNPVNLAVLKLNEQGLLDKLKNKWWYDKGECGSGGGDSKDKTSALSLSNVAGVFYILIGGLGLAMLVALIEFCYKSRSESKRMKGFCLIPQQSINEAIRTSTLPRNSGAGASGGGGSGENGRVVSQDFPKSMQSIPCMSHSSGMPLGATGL
Source text: (§1) Plasmids were obtained from the following individuals: Dr. Suzanne Zukin (Albert Einstein College of Medicine, Bronx, N.Y.), NR1100; Dr. Shigetada Nakanishi (Kyoto University Faculty of Medicine, Kyoto, Japan), NR2A; Dr. Stephen Heinemann (Salk Institute, San Diego, Calif.), GluR1 (flop), GluR3 (flop), and GluR6. Plasmids were linearized with BamH1 (NR1100), XhoI (NR2A, GluR1, GluR3) or XbaI (GluR6) prior to in vitro transcription with T3 (GluR1, GluR3, GluR6) or T7 (NR1100, NR2A) RNA polymerase using the Message Machine kit (Ambion, Austin, Tex.). […] RNA solutions (50-70 nl) were injected into oocytes for delivery of NR1100 (5 ng), NR1100:NR2A (1:10 ng), GluR1 (5 ng). GluR3 (5 ng), or GluR6 (20 ng). Oocytes were incubated in ND96 at 18-20° C. for 3-7 days prior to electrophysiological recording.
(§2) Steroid solutions were prepared as 70-100 mM frozen stocks in dimethyl sulfoxide (DMSO). The final DMSO concentration of all recording solutions was between 0.1% to 0.5% and was constant within an experiment.
(§3) Perfusion control and data acquisition were carried out using an automated oocyte electrophysiology workstation that was developed for the rapid collection of concentration-response data and real-time waveform analysis (Yaghoubi et al., Soc. Neurosci. Abstr. 20: 1109 (1995)). This system is implemented on a Macintosh IIci computer (Apple Computer, Cupertino, Calif.) equipped with MacA-DIOS II data acquisition and control hardware (GW Instruments, Somerville, Mass.). Drug application is controlled by the computer through a series of valves, using custom-written software based on the SuperScope II development environment, improving the efficiency and reproducibility of data collection. Experiments were carried out using an Axoclamp-2A voltage clamp amplifier (Axon Instruments, Foster City, Calif.) in two-electrode voltage clamp mode. Intracellular microelectrodes (1-3 MΩ) were filled with 3 M KCl. […] Membrane potential was clamped at −60 to −70 mV and stepped to −100 mV at the start of data acquisition unless otherwise stated. […] Current and voltage recordings were digitized at 100 Hz for analysis. GluR6 injected oocytes were treated for 10 min with 10 μg/ml concanavalin A to prevent fast desensitization.
(§4) Results are expressed as mean±S.E.M. Statistical comparisons were made using Student's t-test.

GluR3 AMPA receptor = molecular target: T2, GluR3 AMPA receptor (Rattus norvegicus, UniProt P19492); experiment: Kainate-induced currents, Xenopus oocytes injected with GluR3 cRNA
T2 construct: expressed in transfected cells; host or cells: Xenopus oocytes injected with GluR3 cRNA
T2 sequence (P19492 23-888): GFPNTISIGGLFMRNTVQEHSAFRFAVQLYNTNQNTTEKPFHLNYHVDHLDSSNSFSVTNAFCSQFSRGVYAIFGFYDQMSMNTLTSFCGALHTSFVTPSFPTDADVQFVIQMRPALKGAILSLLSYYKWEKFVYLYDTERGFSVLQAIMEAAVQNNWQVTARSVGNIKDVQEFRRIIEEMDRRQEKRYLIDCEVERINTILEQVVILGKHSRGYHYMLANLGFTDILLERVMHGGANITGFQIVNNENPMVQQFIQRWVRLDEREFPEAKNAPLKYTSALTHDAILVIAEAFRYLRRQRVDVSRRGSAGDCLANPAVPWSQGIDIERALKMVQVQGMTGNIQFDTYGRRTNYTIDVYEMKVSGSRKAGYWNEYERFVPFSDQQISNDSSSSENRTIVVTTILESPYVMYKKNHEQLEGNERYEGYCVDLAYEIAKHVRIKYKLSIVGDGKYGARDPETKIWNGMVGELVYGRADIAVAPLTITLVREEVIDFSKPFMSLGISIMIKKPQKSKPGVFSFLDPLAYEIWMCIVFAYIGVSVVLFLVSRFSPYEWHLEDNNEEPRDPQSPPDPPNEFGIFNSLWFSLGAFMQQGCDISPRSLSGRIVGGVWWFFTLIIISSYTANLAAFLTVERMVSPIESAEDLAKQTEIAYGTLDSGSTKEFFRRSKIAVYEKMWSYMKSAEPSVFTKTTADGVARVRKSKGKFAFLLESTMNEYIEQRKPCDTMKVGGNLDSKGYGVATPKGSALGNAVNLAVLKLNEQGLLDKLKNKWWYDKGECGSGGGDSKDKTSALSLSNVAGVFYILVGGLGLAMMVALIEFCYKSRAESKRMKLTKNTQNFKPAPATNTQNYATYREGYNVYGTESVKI
Source text: as §1, §2, §3, §4

NR1111/NR2A = experiment: NMDA-induced currents of NR1 splice variants, Xenopus oocytes, Example 4
Method: Overnight cultures (500 ml) of transformed bacterial cells were prepared in order to grow sufficient quantities for maxiprep isolation of the plasmid CDNA. Maxipreps were done using a Sorvall RC-5B ultracentrifuge, Qiagen columns and cDNA was quantitated with spectrophotometry (OD260 and OD260/ OD280 ratio). The resulting plasmid cDNA was linearized by digestion with an appropriate restriction enzyme that cleaves distal to the cDNA insert (XhoI for NR2A or NotI for NR1100, NR1000, NR1111, NR1011, NR1101, NR1001). […] The samples were stored at −20° C. until use.
In vitro transcription was performed using the Ambion mMessage mMachine kit with T7 (NR1100, NR1000, NR1111, NR1011, NR1101, NR1001) RNA polymerase. The reaction was assembled on ice and allowed to incubate at 37° C. for 1-2 hr. The resulting mRNA was precipitated (reaction termination) using lithium chloride/5 mM EDTA solution and dissolved in RNase-free H2O. The concentration (OD260) and OD260/OD280 ratio (should be more than 1.5) was determined by spectrophotometer. The yield of mRNA was generally 15-30 μg. mRNA was stored at −80° C. until use.
Intracellular recording microelectrodes were fabricated from 100 μl borosilicate glass disposable micropipettes using a 2-step protocol on a standard horizontal Flaming-Brown micropipette puller.

[1] = system: primary cultures of rat hippocampal neurons; experiment: NMDA-induced neuronal death, trypan blue exclusion
[2] = acute 15 min NMDA exposure, +100 μM 3α5βS
[3] = acute 15 min NMDA exposure, DMSO vehicle
[4] = chronic 16 hour NMDA exposure, +100 μM 3α5βS
[5] = chronic 16 hour NMDA exposure, DMSO vehicle

Compound: pregnenolone sulfate [PS]
- PS Emax, percentage change in kainate-induced current (GluR1 AMPA receptor; GluR1, 100 μM kainate): −99%
- inhibition of kainate response (GluR1 AMPA receptor; GluR1, 200 μM PS): 85±4%
- reduction of kainate Imax (GluR1 AMPA receptor; GluR1, PS 100 μM): 83%
- inhibition of the response to kainate (GluR1 AMPA receptor; GluR1, steroid 100 μM): over 70%
- Percentage change in kainate response (GluR1 AMPA receptor; GluR1, steroid 100 μM, 100 μM kainate, −100 mV): −85 ± 1(8) %
- PS Emax, percentage change in kainate-induced current (GluR3 AMPA receptor; GluR3, 100 μM kainate): −90%
- inhibition of kainate response (GluR3 AMPA receptor; GluR3, 200 μM PS): 81±3%
- reduction of kainate Imax (GluR3 AMPA receptor; GluR3, PS 100 μM): 71%
- inhibition of the response to kainate (GluR3 AMPA receptor; GluR3, steroid 100 μM): over 70%
- Percentage change in kainate response (GluR3 AMPA receptor; GluR3, steroid 100 μM, 100 μM kainate, −100 mV): −73 ± 3(8) %
- difference in mrc between NR1011/NR2A and NR1111/NR2A (NR1111/NR2A): 1.2 fold
- difference in mrc between NR1011/NR2A and NR1111/NR2A (NR1111/NR2A; 100 μM PS, pH 6.5): 1.8 fold
- difference in mrc between NR1011/NR2A and NR1111/NR2A (NR1111/NR2A; 100 μM PS, pH 7.5): 1.6 fold
- difference in percentage potentiation between NR1011/NR2A and NR1111/NR2A (NR1111/NR2A; 100 μM PS, pH 7.5): 106%
- difference in percentage potentiation between NR1011/NR2A and NR1111/NR2A (NR1111/NR2A; 100 μM PS, pH 8.5): 91%

Compound: CC(=O)[C@H]1CC[C@H]2[C@@H]3CC[C@@H]4C[C@H](OS(=O)(=O)O)CC[C@]4(C)[C@H]3CC[C@]12C [3α5βS, 3α5β-pregnanolone sulfate]
- Percentage change in kainate response (GluR1 AMPA receptor): −47 ± 12(3) %
- Percentage change in kainate response (GluR3 AMPA receptor): −63 ± 8(4) %
- EC50 ([1]; Rattus norvegicus, Hippocampal neuron, read-out: 3α5βS EC50, inhibition of NMDA-induced neuronal death): 45 µM
- 3α5βS nH, inhibition of neuronal death ([1]; acute 30 μM NMDA exposure): 2.5
- maximal inhibition (Imax) of cell death ([1]; acute 30 μM NMDA exposure): 97%
- inhibition of NMDA-induced neuronal death ([1]; acute 30 μM NMDA, steroid 100 μM (3α5β 50 μM)): nearly eliminates the toxic effects
- difference in percentage inhibition between NR1011/NR2A and NR1111/NR2A (NR1111/NR2A; 100 μM 3α5βS): 5%

Compound: CN[C@H](CC(=O)O)C(=O)O [NMDA, N-methyl-D-aspartate]
- NMDA Emax, neuronal death [1, 2]: 63%
- NMDA nH, neuronal death [1, 2]: 1.8
- NMDA Emax, neuronal death [1, 3]: 80%
- NMDA nH, neuronal death [1, 3]: 2.1
- NMDA Emax, neuronal death [1, 4]: 70%
- NMDA nH, neuronal death [1, 4]: 2.0
- NMDA Emax, neuronal death [1, 5]: 86%
- NMDA nH, neuronal death [1, 5]: 1.9
- EC50 ([1]; read-out: NMDA EC50 for neuronal death, acute 15 min NMDA exposure, +100 μM 3α5βS): 71 µM
- EC50 ([1]; read-out: NMDA EC50 for neuronal death, acute 15 min NMDA exposure, DMSO vehicle): 28 µM
- EC50 ([1]; read-out: NMDA EC50 for neuronal death, chronic 16 hour NMDA exposure, +100 μM 3α5βS): 15 µM
